Consider two molecules from patent US20230265481A1, “METHOD FOR MEASURING THE PROTEASE ACTIVITY OF C3 AND C5 CONVERTASE OF THE ALTERNATIVE COMPLEMENT PATHWAY” (Alexion Pharmaceuticals, Inc., priority 2015, published 2023).

One data set deals with C5 convertase. Briefly: C5 convertase activity on bio-C3b streptavidin-coated spheres, C5a measured with MSD (ECL) assay. Conditions: for ECL signal (amount of C5a produced by C5 convertase): C5 100 nM, 60 minutes. The class given is biochemical. Here is the method:
The bio-C3b binding to streptavidin was performed in a 2.0 ml micro-centrifuge tube. Two hundred and forty […] of Spherotech beads, […] diameter, streptavidin coated spheres were first washed by centrifugation with 300 μL of 10 mM Tris, pH 8, and then resuspended in 200 μL of 10 mM Tris, pH 8. The spheres were incubated with bio-C3b or C3b at a concentration of 320 nM. Spheres were suspended by gentle shaking at 1350 RPM for 20 minutes at room temperature, and collected by centrifugation at 16 RCF for 10 minutes. The residual supernatant was removed and the beads are then washed to remove residual unbound bio-C3b.
C5 convertase was formed on the spheres by incubating the bio-C3b spheres with a Convertase Solution that included components of the AP, a divalent cation and buffer. The Convertase Solution consisted of Factor D, (10 nM), Factor B (400 nM), and NiCl2 (200 μM) in 10 mM Tris, pH 8.0. The spheres were suspended by gentle shaking at 1350 RPM for 20 minutes at 37° C. The spheres were centrifuged at 16×g (RCF) for 10 minutes, the supernatant is removed, and the spheres are resuspended in 1.2 ml of 10 mM Tris pH 8, 1 mM EDTA to a final concentration of 200 μg/ml.
Formation of C5a was accomplished by incubating C5, and the spheres in a Reaction Solution that included a divalent cation. The Reaction Solution was prepared by transferring to a microplate well: (i) […] of spheres with C5 convertase in 10 μl of the Convertase Solution; (ii) […] of a 500 μM NiCl2 solution; and (iii) […] of a 250 nM solution of C5 (5 pmoles). […]
Following the incubation, the reaction was stopped by adding 10 μL of a 500 mM EDTA in 10 mM Tris, pH=8.0. (Total Volume=60 μl)
The amount of C5a in the Reaction Solution was measured with an MSD assay, similar to an ELISA. The neo-epitope anti-C5a antibody, BNJ383, captured soluble C5a, binding it to a well in a microplate. BNJN383 has a high affinity for C5a but a low affinity for C5. The detection reagent was a mouse anti-C5a antibody that binds the C5a captured on the plate, and a SULFO-TAG™ modified anti-mouse secondary antibody that bound the mouse antibody, and generated an ECL signal.
To wells of a high binding 96-well microplate (MSD Catalog No. L15XB-3) was added BNJ383 (0.3 pmoles,)[…]/mL in 25 μL of a carbonate-bicarbonate buffer at pH 9.4. The microplate was sealed and incubated at 37° C. for 60 minutes. […]
The wells were sealed with a foil seal and incubated in the dark for 30 minutes. […] One hundred and fifty μL of 2X MSD Read Buffer containing tripropylamine as an electron carrier was added to the wells using a negative pipetting technique. The microplate was read on an MSD imager to measure the ECL signal generated by the SULFO-TAG™ affixed to the goat secondary antibody. […]

A further data set concerns the target T1, Factor D (Homo sapiens, UniProt P00746).
T1 construct: purchased Comptech (Tyler TX)
Briefly: BLI biosensor assay of Factor D cleavage of Factor B, anti-Bb antibody binding. The format is biochemical.

T1 sequence (P00746 26-253): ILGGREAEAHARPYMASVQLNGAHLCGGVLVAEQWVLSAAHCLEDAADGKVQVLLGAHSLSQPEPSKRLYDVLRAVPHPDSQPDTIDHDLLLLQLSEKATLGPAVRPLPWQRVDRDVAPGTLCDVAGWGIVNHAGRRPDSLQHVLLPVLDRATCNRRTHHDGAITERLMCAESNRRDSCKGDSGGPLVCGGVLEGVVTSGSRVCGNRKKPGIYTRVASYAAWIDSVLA

Regarding “OmCI: tick saliva complement inhibitor, a C5 binding protein that reduces access of the C5 convertase to the C5 cleavage site”, in the data set with C5 convertase (OmCI 50 nM), the “Effect on convertase activity” value was “essentially no effect” and the “ECL signal (amount of C5a produced by C5 convertase)” value is 40,000. For the same molecule, in the data set on C5 convertase (OmCI 100 nM), the “drop of ECL signal” value was determined as 8 fold and the “ECL signal (amount of C5a produced by C5 convertase)” value stood at 5000.

For `O=c1oc(Cl)c(Cl)c2ccccc12` [DCIC, 3,4-Dichloroisocoumarin], the “Effect on Factor D activity” value is “minimal effect” on Factor D (DCIC 23 μM and 35 μM); “maximally inhibited” at Factor D (DCIC 178 μM, 267 μM and 400 μM).
